Test results from patent US20200131144A1, “AMINE OR (THIO)AMIDE CONTAINING LXR MODULATORS” (Phenex-FXR GmbH, priority 2017, published 2020).

Tests used:
[1] = biological target: T1, GST-LXRβ ligand-binding domain (Homo sapiens, UniProt P55055, INS174Q); test: TR-FRETβ activity assay (NCoA3 coactivator peptide recruitment); type: biochemical; settings: 1 μM 24(S)-25-epoxycholesterol as prestimulating agonist; inverse agonist unless *
T1 construct: amino acids 156-461; NP009052; made in house; host or cells: E. coli
T1 sequence (P55055 with tags, fused parts or gaps INS174Q limits assumed): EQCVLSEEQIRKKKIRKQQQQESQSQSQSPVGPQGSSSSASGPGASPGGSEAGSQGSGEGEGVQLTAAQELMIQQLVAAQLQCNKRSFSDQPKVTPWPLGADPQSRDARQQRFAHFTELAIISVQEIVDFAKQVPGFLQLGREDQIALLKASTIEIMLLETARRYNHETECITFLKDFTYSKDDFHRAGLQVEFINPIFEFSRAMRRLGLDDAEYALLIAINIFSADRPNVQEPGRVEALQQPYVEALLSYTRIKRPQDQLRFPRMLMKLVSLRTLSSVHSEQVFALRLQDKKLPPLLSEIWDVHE
How it was run: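 Coactivator recruitment read as TR-FRET (ex 340, em 615 and 665 nm) after 1 h equilibration at 4° C, in triplicate. Mix held 76 nM GST-tagged LXRβ LBD (aa 156-461, E. coli), 400 nM biotin-NCoA3 peptide, Tb-cryptate anti-GST, streptavidin-XL665, 240 mM KCl buffer.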

LXRα full length (FL) = biological target: T2, LXRα full length (FL) (Homo sapiens, UniProt Q13133); test: LXR Gal4 reporter transient transfection assay, mammalian two-hybrid, FL-M2H Gal4α; type: cell-based; settings: HEK293 cells; inverse agonist unless *
T2 construct: the full length (FL) proteins of LXRα (amino acids 1-447); NP005684; expressed in transfected cells; host or cells: HEK293
T2 sequence (Q13133 1-447): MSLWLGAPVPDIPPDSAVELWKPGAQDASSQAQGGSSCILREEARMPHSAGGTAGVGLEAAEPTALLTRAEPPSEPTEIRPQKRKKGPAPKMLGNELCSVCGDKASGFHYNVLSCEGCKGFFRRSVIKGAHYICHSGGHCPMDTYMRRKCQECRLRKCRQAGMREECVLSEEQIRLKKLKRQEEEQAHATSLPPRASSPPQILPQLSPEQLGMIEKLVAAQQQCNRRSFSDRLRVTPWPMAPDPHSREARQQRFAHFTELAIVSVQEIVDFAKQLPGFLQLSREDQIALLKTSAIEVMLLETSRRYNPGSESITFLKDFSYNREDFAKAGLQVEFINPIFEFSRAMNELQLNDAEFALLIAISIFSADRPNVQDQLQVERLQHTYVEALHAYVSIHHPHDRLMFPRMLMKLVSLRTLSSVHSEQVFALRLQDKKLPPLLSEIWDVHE
How it was run: (§1)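 Mammalian two-hybrid read-out: interaction of LXRα or LXRβ (full length or ligand-binding domain, NFkB activation-domain fusions) with GAL4-fused SRC1 or NCoR domains drives GAL4-responsive firefly luciferase in HEK293 cells, normalised by Renilla cotransfection. Compounds given 4 h after transfection, ≤0.2% vehicle, cells lysed after 16 h.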

LXRβ full length (FL) = biological target: T3, LXRβ full length (FL) (Homo sapiens, UniProt P55055, INS174Q); test: LXR Gal4 reporter transient transfection assay, mammalian two-hybrid, FL-M2H Gal4β; type: cell-based; settings: HEK293 cells; inverse agonist unless *
T3 construct: the full length (FL) proteins of LXRα (amino acids 1-447); NP005684; NP009052; expressed in transfected cells; host or cells: HEK293
T3 sequence (P55055 with tags, fused parts or gaps INS174Q): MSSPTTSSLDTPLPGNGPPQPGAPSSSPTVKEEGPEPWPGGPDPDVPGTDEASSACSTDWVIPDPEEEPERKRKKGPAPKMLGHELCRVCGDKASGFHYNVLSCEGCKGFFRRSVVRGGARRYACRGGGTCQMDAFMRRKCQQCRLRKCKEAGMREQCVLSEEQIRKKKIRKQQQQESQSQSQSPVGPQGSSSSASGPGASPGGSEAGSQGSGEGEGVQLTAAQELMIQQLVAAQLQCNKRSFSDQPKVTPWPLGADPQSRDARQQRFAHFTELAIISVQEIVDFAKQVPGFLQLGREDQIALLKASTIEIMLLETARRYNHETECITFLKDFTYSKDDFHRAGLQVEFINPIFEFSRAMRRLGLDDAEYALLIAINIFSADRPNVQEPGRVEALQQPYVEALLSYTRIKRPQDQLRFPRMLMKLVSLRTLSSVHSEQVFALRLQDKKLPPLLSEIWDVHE
How it was run: as §1

[2] = Pharmacokinetics in mice after single oral dosing, blood and liver exposure by LC-MS; type: in vivo, mice (C57/bl6/J)
Procedure: The pharmacokinetics of the compounds was assessed in mice after single dosing and oral administrations. Blood and liver exposure was measured via LC-MS.
The study design was as follows:
Animals: C57/bl6/J (Janvier) males Diet: standard rodent chow Dose: 20 mg/kg Animal handling: animals were withdrawn from food at least 12 h before administration Design: single dose oral administration, n=3 animals per group Sacrifice: at stated time point (4, 12 or 24 h) after administration Bioanalytics: LC-MS of liver and blood samples

[3] = male, C57/bl6/J, mouse, liver/blood, single oral dose 20 mg/kg, time point 4 h, read-out: liver/blood ratio
[4] = single oral dose 20 mg/kg, time point 4 h
[5] = single oral dose 20 mg/kg, time point 12 h

SMILES | EC50 [1] [µM] | EC50 (LXRα full length (FL)) [µM] | EC50 (LXRβ full length (FL)) [µM] | also measured
Cc1ccc2ccccc2c1C(=O)N(Cc1ccc(-c2cccc(C(C)(C)C(=O)NO)c2)cc1)Cc1ccc(C(F)(F)F)o1 [5/3] | < 0.1 | < 0.1 | < 0.1 | Kp at 4 h [2, 3]: 7.6; blood/plasma exposure [2, 4]: 0.08 µM; liver exposure [2, 4]: 0.61 µM
N#Cc1ccc2ccccc2c1CN(Cc1ccc(-c2cccc(S(=O)(=O)CC(=O)O)c2)cc1)Cc1ccc(C(F)(F)F)o1 [7/7] | 1 to 10 | 1 to 10 | 0.1 to 1 | Kp at 4 h [2, 3]: 44; blood/plasma exposure [2, 4]: 0.01 µM; liver exposure [2, 4]: 0.42 µM
Cc1cc(C)c(CN(Cc2ccc(-c3cncc(S(=O)(=O)CC(=O)O)c3)cc2)Cc2ccc(C(F)(F)F)o2)c(C)c1 [12/2] | – | – | – | Kp at 12 h ([2]; male, C57/bl6/J, mouse, liver/blood, single oral dose 20 mg/kg, time point 12 h, read-out: liver/blood ratio): 2.4; blood/plasma exposure [2, 5]: 0.34 µM; liver exposure [2, 5]: 0.83 µM
Cc1cc(C)c(CN(Cc2ccc(-c3cc(F)c(CO)c(S(=O)(=O)CC(=O)O)c3)cc2)Cc2ccc(C(F)(F)F)o2)c(C)c1 [20/1] | 0.1 to 1 | 1 to 10 | 0.1 to 1 | Kp at 4 h [2, 3]: 64; blood/plasma exposure [2, 4]: 1.0 µM; liver exposure [2, 4]: 64 µM
Cc1cc(C)c(CN(Cc2ccc(-c3cccc(S(=O)(=O)CC(=O)NS(C)(=O)=O)c3)cc2)Cc2ccc(C(F)(F)F)o2)c(C)c1 [Example 2] | 1 to 10 | 1 to 10 | 0.1 to 1 | –
Cc1cc(C)c(CN(Cc2ccc(-c3cccc(S(=O)(=O)CC(=O)NO)c3)cc2)Cc2ccc(C(F)(F)F)o2)c(C)c1 [Example 5, N-Hydroxy-2-((4′-((((5-(trifluoromethyl)furan-2-yl)methyl)(2,46-trimethylbenzyl)amino)methyl)-[1,1′-biphenyl]-3-yl)sulfonyl)acetamide] | 0.1 to 1 | 0.1 to 1 | 0.1 to 1 | –
CONC(=O)CS(=O)(=O)c1cccc(-c2ccc(CN(Cc3ccc(C(F)(F)F)o3)Cc3c(C)cc(C)cc3C)cc2)c1 [Example 5/1] | 0.1 to 1 | 0.1 to 1 | 0.1 to 1 | –
COC(=O)CS(=O)(=O)c1cccc(-c2ccc(CN(Cc3ccc(C(F)(F)F)o3)C(C)c3cccc4ccccc34)cc2)c1 (stereo not shown) [Example 6, Methyl 2-((4′-(((1-(naphthalen-1-yl)ethyl)((5-(trifluoromethyl)furan-2-yl)methyl)amino)methyl)-[1,1′-biphenyl]-3-yl)sulfonyl)acetate] | – | – | – | Kp at 4 h [2, 3]: 45; blood/plasma exposure [2, 4]: 0.20 µM; liver exposure [2, 4]: 9.08 µM
Cc1cc(C)c(CN(Cc2ccc(C(F)(F)F)o2)Cc2ccc(-c3cccc(S(=O)(=O)CC(=O)O)c3)cc2F)c(C)c1 [Example 15, 2-((3′-Fluoro-4′-((((5-(trifluoromethyl)furan-2-yl)methyl)(2,4,6-trimethylbenzyl)amino)methyl)-[1,1′-biphenyl]-3-yl)sulfonyl)acetic acid] | 1 to 10 | 0.1 to 1 | 0.1 to 1 | –
Cc1ccc2ccccc2c1C(=O)N(Cc1ccc(C(F)(F)F)o1)Cc1ccc(-c2cccc(C(C)(C)C(=O)O)c2)cc1C(N)=O [Example 17] | > 10 | 1 to 10 | 0.1 to 1 | –
COc1cc(CN(Cc2ccc(C(F)(F)F)o2)Cc2c(C)ccc3ccccc23)ccc1-c1cc(F)c(CO)c(S(=O)(=O)CC(=O)O)c1 [Example 22, 2-((5-Fluoro-4-(hydroxymethyl)-2′-methoxy-4′-((((2-methylnaphthalen-1-yl)methyl)((5-(trifluoromethyl)furan-2-yl)methyl)amino)methyl)-[1,1′-biphenyl]-3-yl)sulfonyl)acetic acid] | > 10 | 1 to 10 | 0.1 to 1 | –
Cc1ccc2ccccc2c1C(=O)N(Cc1ccc(-c2cccc(S(=O)(=O)CC(=O)O)c2)cc1)Cc1ccc(C(F)(F)F)n1C [Example 28, 2-((4′-((2-Methyl-N-((1-methyl-5-(trifluoromethyl)-1H-pyrrol-2-yl)methyl)-1-naphthamido)methyl)-[1,1′-biphenyl]-3-yl)sulfonyl)acetic acid] | > 10 | 0.1 to 1 | 1 to 10 | –
Cc1ccc2ccccc2c1C(=O)N(Cc1ccc(-c2cccc(C(C)(C)c3noc(=O)[nH]3)c2)cc1)Cc1ccc(C(F)(F)F)o1 [Example 29, 2-Methyl-N-((3′-(2-(5-oxo-4,5-dihydro-1,2,4-oxadiazol-3-yl)propan-2-yl)-[1,1′-biphenyl]-4-yl)methyl)-N-((5-(trifluoromethyl)furan-2-yl)methy)-1-naphthamide] | 0.1 to 1 | < 0.1 | < 0.1 | –
Cc1ccc2ccccc2c1C(=O)N(Cc1ccc(-c2cccc(S(=O)(=O)Cc3nnn[nH]3)c2)cc1)Cc1ccc(C(F)(F)F)o1 [Example 30, N-((3′-(((1H-Tetrazol-5-yl)methyl)sulfonyl)-1,1′-biphenyl-4-yl)methyl)-2-methyl-N-((5-(trifluoromethyl)furan-2-yl)methyl)-1-naphthamide] | 0.1 to 1 | 0.1 to 1 | 0.1 to 1 | –
CCOC(=O)OC(OC(=O)C(C)(C)c1cccc(-c2ccc(CN(Cc3ccc(C(F)(F)F)o3)C(=O)c3c(C)ccc4ccccc34)cc2)c1)C(C)C (stereo not shown) [Example 31, 1-((Ethoxycarbonyl)oxy)-2-methylpropyl 2-methyl-2-(4′-((2-methyl-N-((5-(trifluoromethyl)furan-2-yl)methyl)-1-naphthamido)methyl)-[1,1′-biphenyl]-3-yl)propanoate] | 1 to 10 | < 0.1 | < 0.1 | –
CNc1nc(-c2cccc(C(C)(C)C(=O)O)c2)ccc1CN(Cc1ccc(C(F)(F)F)o1)C(=O)c1c(C)ccc2ccccc12 [Example 32, 2-Methyl-2-(3-(5-((2-methyl-N-((5-(trifluoromethyl)furan-2-yl)methyl)-1-naphthamido)methyl)-6-(methylamino)pyridin-2-yl)phenyl)propanoic acid] | > 10 | 0.1 to 1 | 0.1 to 1 | –
Cc1nc2cccnc2c(C(=O)N(Cc2ccc(-c3cccc(C(C)(C)C(=O)O)c3)cc2)Cc2ccc(C#N)o2)c1C [Example 33/1] | 0.1 to 1 | < 0.1 | < 0.1 | –
Cc1nc2ccc(=O)[nH]c2c(C(=O)N(Cc2ccc(-c3cccc(C(C)(C)C(=O)O)c3)cc2)Cc2ccc(C(F)(F)F)o2)c1C [Example 36, 2-(4′-((2,3-Dimethyl-6-oxo-N-((5-(trifluoromethyl)furan-2-yl)methyl)-5,6-dihydro-1,5-naphthyridine-4-carboxamido)methyl)-[1,1′-biphenyl]-3-yl)-2-methylpropanoic acid] | 1 to 10 | 1 to 10 | 1 to 10 | –
CCOC(=O)c1ccc(CN(Cc2ccc(-c3cccc(S(C)(=O)=O)c3)cc2)S(=O)(=O)c2c(C)cc(C)cc2C)o1 [SR9238, reference compound] | – | – | – | oral bioavailability ([2]; single dose oral administration, 20 mg/kg): not orally bioavailable and hepatoselective
